This experiment has as its target TNKS1 (Homo sapiens, UniProt O95271). In words: TNKS1/PARP Biochemical Assay (TNKS1).

The results in this text go back to patent US9193689B2, “3-aryl-5-substituted-isoquinolin-1-one compounds and their therapeutic use” (INSTITUTE OF CANCER RESEARCH: ROYAL CANCER HOSPITAL (THE), priority 2012, dated 2015).

Molecules are shown by their SMILES. Some results are limits rather than exact numbers.

As a reminder, the IC50 is the concentration that inhibits the measured activity by half. A lower IC50 goes with greater potency.

Consider `Cc1cccc2c(=O)[nH]c(-c3ccc(C(=O)N(C)Cc4nccn4C)cc3)cc12` [IQ-198], for which the IC50 is less than 20 nM.

With `O=C(c1ncc(-c2cc3c(F)ccc(F)c3c(=O)[nH]2)cn1)N1CCN(CC2CC2)CC1` [IQ-229], the IC50 was less than 500 nM.

`CC(C)(C)OC(=O)N1CCN(Cc2ccc(-c3cc4c(C5CC5)cccc4c(=O)[nH]3)cc2)CC1` [IQ-047] gave an IC50 of less than 500 nM.

`Cc1cccc2c(=O)[nH]c(-c3ccc(N4CCC(N(C)C)CC4)nc3)cc12` [IQ-006] came in with a half-maximal inhibitory concentration (IC50) of less than 20 nM.

Turning to `Cc1cccc2c(=O)[nH]c(-c3ccc(C(=O)N(C)C4CCN(C)C4)cc3)cc12` (stereo not drawn) [IQ-196], the IC50 was less than 20 nM.

In turn, `Cc1cc(F)cc2c(=O)[nH]c(-c3ccc(C(=O)N(C)C4CCNC4)cc3)cc12` (stereo not drawn) [IQ-186] gave an IC50 of less than 500 nM.

In turn, `Cc1cc(F)cc2c(=O)[nH]c(-c3ccc(CN4CC(O)C4)cc3)cc12` [IQ-170, 7-Fluoro-3-[4-(3-hydroxy-azetidin-1-ylmethyl)-phenyl]-5-methyl-2H-isoquinolin-1-one] had a half-inhibitory concentration (IC50) of less than 20 nM.

In turn, `Cc1cc(F)cc2c(=O)[nH]c(-c3ccc(CN4CCNCC4)cc3)cc12` [IQ-078, 7-Fluoro-5-methyl-3-(4-piperazin-1-ylmethyl-phenyl)-2H-isoquinolin-1-one] had an IC50 of less than 50 nM.

`Cc1cccc2c(=O)[nH]c(-c3ccc(CN4CCCC4)c(F)c3)cc12` [IQ-039] returned a half-maximal inhibitory concentration (IC50) of less than 500 nM.

In the case of `O=c1[nH]c(-c2ccc(CN3CCNCC3)cc2)cc2c(C3CC3)cccc12` [IQ-049], the IC50 is less than 500 nM.

`Cc1cccc2c(=O)[nH]c(-c3ccc(C(=O)N(C)C4CCN(C)C4)cc3)cc12` (single isomer, unassigned) [IQ-205-1] showed a 50% inhibitory concentration (IC50) of less than 50 nM.

In turn, `Cc1cc(F)cc2c(=O)[nH]c(-c3ccc(C(=O)N4CCN(CCO)CC4)cc3)cc12` [IQ-192] registered a concentration for half-maximal inhibition (IC50) of less than 20 nM.

Turning to `Cc1cccc2c(=O)[nH]c(-c3ccc(CN4CCCNCC4)cc3)cc12` [IQ-062], the 50% inhibitory concentration (IC50) is less than 20 nM.

With `Cc1cccc2c(=O)[nH]c(-c3ccc(CN4CCN(C(=O)OC(C)(C)C)CC4C)cc3)cc12` (stereo not drawn) [IQ-142], the concentration for half-maximal inhibition (IC50) is less than 500 nM.

The compound `CC(C)(C)OC(=O)N1CCN(Cc2ccc(-c3cc4c(Cl)cccc4c(=O)[nH]3)cc2)CC1` [IQ-044] showed an IC50 of less than 500 nM.

The compound `Cc1cccc2c(=O)[nH]c(-c3ccc(CN4CCN(C(=O)OC(C)(C)C)CC4)cc3)cc12` [IQ-040] displayed a concentration for half-maximal inhibition (IC50) of less than 500 nM.

In turn, `Cc1cccc2c(=O)[nH]c(-c3ccc(S(=O)(=O)N(C4CC4)C4CCN(C)CC4)cc3)cc12` [IQ-119] gave an IC50 of less than 500 nM.

`CN1CCN(C(=O)c2ccc(-c3cc4c(F)ccc(F)c4c(=O)[nH]3)cc2)CC1` [IQ-226]: the IC50 is less than 50 nM.

`Cc1cccc2c(=O)[nH]c(-c3ccc(CN4CCC(N(C)C)C4)cc3)cc12` (stereo not drawn) [IQ-173] came in with an IC50 of less than 50 nM.

Regarding `Cc1cccc2c(=O)[nH]c(-c3ccc(S(=O)(=O)N(C)CC4CCN(C(=O)OC(C)(C)C)CC4)cc3)cc12` [IQ-113], the IC50 is less than 500 nM.

Compound `CC(=O)N1CCN(Cc2ccc(-c3cc4c(Cl)cccc4c(=O)[nH]3)cc2)CC1` [IQ-045] yielded an IC50 of less than 50 nM.

The compound `CN(CC1CCN(C(=O)OC(C)(C)C)CC1)S(=O)(=O)c1ccc(-c2cc3c(Cl)cccc3c(=O)[nH]2)cc1` [IQ-114] showed a half-maximal inhibitory concentration (IC50) of less than 500 nM.

For the compound `Cc1cccc2c(=O)[nH]c(-c3ccc(Cn4c(C)nc5ccccc54)cc3)cc12` [IQ-179], the half-inhibitory concentration (IC50) was less than 500 nM.

Turning to `Cc1cccc2c(=O)[nH]c(-c3ccc(C(=O)N(C)CC4(C)CCN(C)C4)cc3)cc12` (stereo not drawn) [IQ-209], the IC50 was less than 20 nM.

For the compound `Cc1cc(F)cc2c(=O)[nH]c(-c3ccc(C(C)(C)N4CC(O)C4)cc3)cc12` [IQ-185], the IC50 was less than 50 nM.

In the case of `O=c1[nH]c(-c2ccc(N3CCNCC3)cc2)cc2c(Cl)cccc12` [IQ-014], the half-maximal inhibitory concentration (IC50) was less than 20 nM.

Consider `CN1CCN(c2ccc(-c3cc4c(Cl)cccc4c(=O)[nH]3)c[n+]2[O-])CC1` [IQ-002-2, 5-Chloro-3-[6-(4-methyl-piperazin-1-yl)-1-oxy-pyridin-3-yl]-2H-isoquinolin-1-one], for which the concentration for half-maximal inhibition (IC50) is less than 500 nM.
